Measurements reported in ChEMBL document CHEMBL1146971, “Discovery of novel heterocyclic factor VIIa inhibitors” (Bioorg Med Chem Lett, 2006).
pKi: −log10 of the molar value.

Assays:
Coagulation factor VII = target: T1, Coagulation factor VII (Homo sapiens, UniProt P08709); assay: Binding affinity to f7a
T1 sequence (P08709 whole entry): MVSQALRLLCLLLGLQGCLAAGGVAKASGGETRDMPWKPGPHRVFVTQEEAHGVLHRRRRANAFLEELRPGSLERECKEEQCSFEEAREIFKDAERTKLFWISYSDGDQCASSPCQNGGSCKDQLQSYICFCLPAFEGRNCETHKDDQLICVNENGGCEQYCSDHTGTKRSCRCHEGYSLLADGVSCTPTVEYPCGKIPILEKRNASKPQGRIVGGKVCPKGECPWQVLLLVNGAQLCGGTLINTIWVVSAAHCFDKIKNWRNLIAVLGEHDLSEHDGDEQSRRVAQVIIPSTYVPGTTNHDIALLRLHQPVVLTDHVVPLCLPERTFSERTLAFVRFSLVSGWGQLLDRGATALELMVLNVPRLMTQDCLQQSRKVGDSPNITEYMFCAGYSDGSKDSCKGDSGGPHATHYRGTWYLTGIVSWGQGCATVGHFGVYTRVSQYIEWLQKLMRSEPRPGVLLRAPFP

Coagulation factor X = Coagulation factor X (Homo sapiens, UniProt P00742); assay: Binding affinity to f10a
Prothrombin = Prothrombin (Homo sapiens, UniProt P00734); assay: Binding affinity to thrombin
Trypsin = Trypsin (Homo sapiens, UniProt P07477+P07478+P35030); assay: Binding affinity to trypsin; assay type: protein assay
Homo sapiens = species on record: Homo sapiens; assay: Selectivity for f7a over trypsin

Sequence of Coagulation factor X (P00742 41-179 limits assumed): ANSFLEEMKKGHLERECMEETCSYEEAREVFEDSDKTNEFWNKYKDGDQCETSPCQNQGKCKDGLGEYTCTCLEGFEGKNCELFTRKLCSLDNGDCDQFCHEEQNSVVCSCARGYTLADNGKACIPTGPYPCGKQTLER
Sequence of Coagulation factor X (P00742 235-488 limits assumed): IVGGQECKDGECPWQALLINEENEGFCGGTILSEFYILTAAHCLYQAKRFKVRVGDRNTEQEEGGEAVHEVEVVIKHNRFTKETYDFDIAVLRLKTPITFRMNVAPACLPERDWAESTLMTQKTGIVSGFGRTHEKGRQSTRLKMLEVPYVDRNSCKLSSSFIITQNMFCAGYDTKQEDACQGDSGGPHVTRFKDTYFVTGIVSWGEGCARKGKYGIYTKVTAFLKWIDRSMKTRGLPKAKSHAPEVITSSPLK

Row | pKi (Coagulation factor VII) | pKi (Coagulation factor X) | pKi (Prothrombin) | Ki (Trypsin) [µM] | Selectivity ratio (Homo sapiens) | SMILES
1 | 4.41 | < 3.82 | < 3.82 | > 150 |  | Nc1ccc2[nH]c(-c3cc(CC(=O)O)cc(-c4cccc([N+](=O)[O-])c4)c3O)nc2n1
2 | 4.92 |  |  |  | > 13 | NC(=O)Nc1cccc(-c2cc(CC(=O)O)cc(-c3cc4[nH]c(N)ccc-4n3)c2O)c1
3 | 5.62 |  |  |  | 67 | Nc1ccc2[nH]c(-c3cc(CC(=O)O)cc(-c4ccccc4)c3O)cc2n1
4 | 5.85 |  |  |  | > 100 | CN(C)CCNC(=O)NCc1cccc(-c2cc(CC(=O)O)cc(-c3cc4[nH]c(N)ccc-4n3)c2O)c1
5 |  | 5.46 | 4.36 | 120 | 400 | Nc1ccc2[nH]c(-c3cc(CC(=O)O)cc(-c4cccc([N+](=O)[O-])c4)c3O)cc2n1
6 | 7.70 |  |  |  | > 7000 | Nc1ccc2[nH]c(-c3cc(CC(=O)O)cc(-c4cccc(CNC(=O)Nc5ccccc5)c4)c3O)cc2n1
7 | 5.13 |  |  |  | 16 | CS(=O)(=O)c1cccc(-c2cc(CC(=O)O)cc(-c3cc4[nH]c(N)ccc-4n3)c2O)c1
8 |  | 6.49 | < 3.82 | 11 |  | N=C(N)c1ccc2[nH]c(-c3cc(CC(=O)O)cc(-c4cccc([N+](=O)[O-])c4)c3O)nc2c1
9 | 5.60 |  |  |  | 84 | Nc1ccc2[nH]c(-c3cc(CC(=O)O)cc(-c4cccc(O)c4)c3O)cc2n1
10 | 4.96 | < 3.82 | < 3.82 | > 150 |  | O=C(O)Cc1cc(-c2cccc([N+](=O)[O-])c2)c(O)c(-c2nc3ccccc3[nH]2)c1
11 | 8.40 | 7.30 | 5.54 | 0.4 |  | N=C(N)c1ccc2[nH]c(-c3cc(CC(=O)O)cc(-c4cccc([N+](=O)[O-])c4)c3O)cc2c1
